Measured values taken from patent US9187472B2 (AbbVie Inc., priority 2012, dated 2015).

Key:
[1] = biological target: NAMPT (human, recombinant, C-terminally His-tagged) (Homo sapiens, UniProt P43490); assay: Time-Resolved Fluorescence Resonance Energy Transfer (TR-FRET) Binding Assay of NAMPT; conditions: without substrates; 6.8 nM NAMPT, 200 nM probe, 3 hours equilibration
Method in brief: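 Compounds, diluted in half-log steps, are mixed with enzyme (6.8 nM), fluorescent probe (200 nM) and Tb-anti-His antibody (1 nM) in pH 7.5 HEPES buffer containing 10 mM MgCl2 and 1 mM DTT. Plates equilibrate 3 h at room temperature; normalized FRET ratios are fitted by four-parameter logistic regression for IC50.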

NAMPT = NAMPT (Homo sapiens, UniProt P43490); assay: TR-FRET Binding Assay of NAMPT with PRPP; conditions: with 200 μM PRPP and 2.5 mM ATP; 2 nM NAMPT, 2 nM probe, 16 hours equilibration
Method in brief: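 Compounds were mixed with 2 nM His-tagged NAMPT, 2 nM probe, 1 nM terbium anti-His antibody, 200 μM PRPP and 2.5 mM ATP in assay buffer with 2% DMSO, then left 16 hours to permit possible enzymatic processing of compounds before time-resolved FRET was measured.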

PC3 cells = assay: NAMPT Cell Proliferation Assay; assay type: cell-based; conditions: Homo sapiens, PC-3, 120 h, 5 days incubation, cell viability by Cell Titer Glo
Method in brief: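 PC3 cells were plated at 500 cells/well in RPMI with 10% heat-inactivated FBS, left to attach overnight, then given compounds in 10-fold dilutions from 10 μM to 1×10^−5 μM. After 5 days at 37° C and 5% CO2, viability was read by luminescence and IC50s came from sigmoidal fits of percent inhibition.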

Sequence of NAMPT (P43490 whole entry): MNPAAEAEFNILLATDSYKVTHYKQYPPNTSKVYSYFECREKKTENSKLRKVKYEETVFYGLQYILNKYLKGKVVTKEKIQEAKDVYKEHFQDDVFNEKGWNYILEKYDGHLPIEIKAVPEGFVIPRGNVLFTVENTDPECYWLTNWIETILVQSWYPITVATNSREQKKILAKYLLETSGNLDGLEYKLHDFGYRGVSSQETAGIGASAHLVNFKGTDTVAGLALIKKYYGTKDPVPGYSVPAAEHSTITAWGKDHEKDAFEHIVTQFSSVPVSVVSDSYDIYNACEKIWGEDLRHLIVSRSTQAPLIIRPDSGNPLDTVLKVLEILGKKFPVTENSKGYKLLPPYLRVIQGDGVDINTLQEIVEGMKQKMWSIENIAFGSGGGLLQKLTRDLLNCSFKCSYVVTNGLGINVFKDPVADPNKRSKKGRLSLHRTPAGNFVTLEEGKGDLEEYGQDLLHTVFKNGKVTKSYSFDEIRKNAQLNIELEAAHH
Sequence of NAMPT (human, recombinant, C-terminally His-tagged) (P43490 whole entry): as above

Row | SMILES | IC50 [1] [nM] | IC50 (NAMPT) [nM] | IC50 (PC3 cells) [nM]
1 | CC(C)C(=O)N1CC=C(c2ccc(NC(=O)NCc3ccn4ccnc4c3)c(F)c2)CC1 [Example 306, 1-{2-fluoro-4-[1-(2-methylpropanoyl)-1,2,3,6-tetrahydropyridin-4-yl]phenyl}-3-(imidazo[1,2-a]pyridin-7-ylmethyl)urea] | 144 | 0.169 | 21.9
2 | O=C(NCc1ccn2ccnc2c1)c1ccc(-c2cnn(C[C@H]3CCCO3)c2)s1 [Example 395, N-(imidazo[1,2-a]pyridin-7-ylmethyl)-5-{1-[(2R)-tetrahydrofuran-2-ylmethyl]-1H-pyrazol-4-yl}thiophene-2-carboxamide] | 12.5 | 0.193 | 6.34
3 | CC(C)CC(=O)Nc1ncc(C(=O)NCc2ccc3nccn3c2)s1 [Example 137, N-(imidazo[1,2-a]pyridin-6-ylmethyl)-2-[(3-methylbutanoyl)amino]-1,3-thiazole-5-carboxamide] | 315 | 7.21 | 225
4 | Cn1cc(CCC(=O)N(CC2CCCO2)c2ncc(C(=O)NCc3ccc4nccn4c3)s2)cn1 (stereo not drawn) [Example 130, N-(imidazo[1,2-a]pyridin-6-ylmethyl)-2-{[3-(1-methyl-1H-pyrazol-4-yl)propanoyl](tetrahydrofuran-2-ylmethyl)amino}-1,3-thiazole-5-carboxamide] | 53.2 | 0.981 | 6.55
5 | O=C(NCc1ccn2ccnc2c1)c1ccc(N2C[C@@H](O)CC2=O)s1 [Example 268, 5-[(4S)-4-hydroxy-2-oxopyrrolidin-1-yl]-N-(imidazo[1,2-a]pyridin-7-ylmethyl)thiophene-2-carboxamide] | 755 | 0.169 | 5540
6 | O=C(Nc1ccc(C(=O)NCC2CCCC2)cc1)Nc1ccc2nccn2c1 [Example 8, N-(cyclopentylmethyl)-4-[(imidazo[1,2-a]pyridin-6-ylcarbamoyl)amino]benzamide] | 114 | 0.702 | 70.2
7 | CC(C)C(=O)N1CC[C@@H](Oc2ccc(NC(=O)NCc3ccn4ccnc4c3)cc2)C1 [Example 330, 1-(imidazo[1,2-a]pyridin-7-ylmethyl)-3-(4-{[(3R)-1-(2-methylpropanoyl)pyrrolidin-3-yl]oxy}phenyl)urea] | 320 | 0.432 | 22.9
8 | CC(C)Cn1cc(-c2ccc(C(=O)NCc3ccn4ccnc4c3)o2)cn1 [Example 740, N-(imidazo[1,2-a]pyridin-7-ylmethyl)-5-[1-(2-methylpropyl)-1H-pyrazol-4-yl]furan-2-carboxamide] | 70.1 | 0.403 | 8.13
9 | CC(C)(CO)NC(=O)c1ccc(NC(=O)Nc2ccc3nccn3c2)cc1 [Example 6, N-(1-hydroxy-2-methylpropan-2-yl)-4-[(imidazo[1,2-a]pyridin-6-ylcarbamoyl)amino]benzamide] | 2910 | 0.964 | 6650
10 | O=C(Nc1ccc(C(=O)NCCOc2ccccc2)cc1)Nc1ccc2nccn2c1 [Example 10, 4-[(imidazo[1,2-a]pyridin-6-ylcarbamoyl)amino]-N-(2-phenoxyethyl)benzamide] | 197 | 0.457 | 331
11 | CC(C)C(=O)N1CCC(c2ccc(C(=O)NCc3ccn4c(Cl)cnc4c3)cc2)CC1 [Example 575, N-[(3-chloroimidazo[1,2-a]pyridin-7-yl)methyl]-4-[1-(2-methylpropanoyl)piperidin-4-yl]benzamide] | 3250 | 10.8 | > 10000
12 | O=C(NCc1ccn2ccnc2c1)c1ccc(OC2CCN(C(=O)C3COCCO3)CC2)cc1 (stereo not drawn) [Example 421, 4-{[1-(1,4-dioxan-2-ylcarbonyl)piperidin-4-yl]oxy}-N-(imidazo[1,2-a]pyridin-7-ylmethyl)benzamide] | 2450 | 0.271 | 317
13 | O=C(NCc1ccn2ccnc2c1)c1ccc(C2CN(C(=O)c3ccccc3)C2)cc1 [Example 549, 4-(1-benzoylazetidin-3-yl)-N-(imidazo[1,2-a]pyridin-7-ylmethyl)benzamide] | 81.2 | 0.224 | 9.42
14 | O=C(NCc1ccn2ccnc2c1)c1ccc(-c2cnn(CC3CCCCO3)c2)s1 (stereo not drawn) [Example 247, N-(imidazo[1,2-a]pyridin-7-ylmethyl)-5-[1-(tetrahydro-2H-pyran-2-ylmethyl)-1H-pyrazol-4-yl]thiophene-2-carboxamide] | 62.7 | 0.275 | 1.34

More lines, in order of falling IC50 [1], values ahead:

Row | IC50 [1] [nM] | IC50 (NAMPT) [nM] | IC50 (PC3 cells) [nM] | SMILES
15 | 4450 | 14.4 | 3300 | CC(C)CC(=O)N(Cc1ccc(C#N)cc1)c1ncc(C(=O)Nc2ccc3nccn3c2)s1 [Example 53, 2-[(4-cyanobenzyl)(3-methylbutanoyl)amino]-N-(imidazo[1,2-a]pyridin-6-yl)-1,3-thiazole-5-carboxamide]
16 | 851 | 0.536 | 65.9 | O=C(NCCCCC1CCN(C(=O)C2CCOC2)CC1)Nc1ccc2nccn2c1 (stereo not drawn) [Example 72, 1-imidazo[1,2-a]pyridin-6-yl-3-{4-[1-(tetrahydrofuran-3-ylcarbonyl)piperidin-4-yl]butyl}urea]
17 | 488 | 0.634 | 758 | O=C(NCc1ccn2ccnc2c1)c1cc(Cl)c(-c2cnn(C[C@H]3CCOC3)c2)s1 [Example 579, 4-chloro-N-(imidazo[1,2-a]pyridin-7-ylmethyl)-5-{1-[(3R)-tetrahydrofuran-3-ylmethyl]-1H-pyrazol-4-yl}thiophene-2-carboxamide]
18 | 232 | 0.862 | 33.5 | O=C(NCc1ccn2ccnc2c1)c1ccc(C2CCN(C(=O)c3cccc(Cl)c3)C2)cc1 (stereo not drawn) [Example 597, 4-[1-(3-chlorobenzoyl)pyrrolidin-3-yl]-N-(imidazo[1,2-a]pyridin-7-ylmethyl)benzamide]
19 | 138 | 0.761 | 19.3 | O=C(NCc1ccn2ccnc2c1)c1ccc(C2CCN(C(=O)c3cccc(F)c3)C2)cc1 (stereo not drawn) [Example 591, 4-[1-(3-fluorobenzoyl)pyrrolidin-3-yl]-N-(imidazo[1,2-a]pyridin-7-ylmethyl)benzamide]
20 | 81.2 | 0.298 | 712 | CC(C)C(=O)N1CC(O)(c2ccc(C(=O)NCc3ccn4ccnc4c3)s2)C1 [Example 400, 5-[3-hydroxy-1-(2-methylpropanoyl)azetidin-3-yl]-N-(imidazo[1,2-a]pyridin-7-ylmethyl)thiophene-2-carboxamide]
21 | 51.9 | 0.538 | 60.9 | Cn1cc(C(=O)N2CCC(c3ccc(C(=O)NCc4ccn5ccnc5c4)s3)C2)cn1 (stereo not drawn) [Example 775, N-(imidazo[1,2-a]pyridin-7-ylmethyl)-5-{1-[(1-methyl-1H-pyrazol-4-yl)carbonyl]pyrrolidin-3-yl}thiophene-2-carboxamide]
22 | 49.1 | 1.25 | 2.76 | CC[C@H](C)C(=O)N1CCC(c2ccc(NC(=O)NCc3ccn4ccnc4c3)cc2)CC1 [Example 710, 1-(imidazo[1,2-a]pyridin-7-ylmethyl)-3-(4-{1-[(2S)-2-methylbutanoyl]piperidin-4-yl}phenyl)urea]
23 | 48.5 | 0.478 | 2.31 | O=C(NCc1ccn2ccnc2c1)c1ccc(C2CCN(C(=O)c3ccc(F)cc3)C2)s1 (stereo not drawn) [Example 763, 5-[1-(4-fluorobenzoyl)pyrrolidin-3-yl]-N-(imidazo[1,2-a]pyridin-7-ylmethyl)thiophene-2-carboxamide]
